The assay deals with recombinantly expressed human PARP-1 enzyme (Homo sapiens, UniProt P09874). Description: PARP enzyme assay, Method B (tritium-labeled NAD incorporation). Conditions: Method B; 200 μM NAD, room temperature 1 hour, pH 8.0; read-out: IC50 (μM)/Method B. The class given is biochemical. How it is done:
Method B: PARP Enzyme Assay:
The IC50 is determined in this method by incubating the substances to be tested with the DNA-activated, recombinantly expressed and purified PARP-1 enzyme. Specifically, various concentrations of the test substance are incubated in 50 μL of reaction solution, which contains 50 mM Tris, 5 mM MgCl2, 1 mM DTT, 200 μM NAD, 0.1 m Ci/mL tritium-labeled NAD, 0.1 mg/mL DNA, 0.1 mg/mL histones, 2 μg/mL recombinantly expressed human PARP-1 enzyme, pH=8.0, at room temperature for 1 hour. The reaction is stopped by adding 150 μL of 20% trichloroacetic acid, and the radiolabeled protein constituents are precipitated. After incubation on ice for 10 minutes, the labeled, insoluble constituents are separated off through a glass fiber filter and, after washing with 20% trichloroacetic acid three times, the radioactivity incorporated by the PARP-1 enzyme is measured by radioluminescence. Consideration of the incorporation rates determined in this way as a function of the concentration of the test substance results in IC50 as the concentration of the test substance which reduces the incorporation rate to half the maximum value attainable (incubation without inhibitor).
The IC50 (fifty percent inhibitory concentration of the test substance in a solution—expressed at micromolar (μM) concentration) measured in accordance with these procedures for the compounds of this invention are summarized in Table 1.

Counter-ions that a name gives are not always drawn.

Sequence of recombinantly expressed human PARP-1 enzyme (P09874 whole entry): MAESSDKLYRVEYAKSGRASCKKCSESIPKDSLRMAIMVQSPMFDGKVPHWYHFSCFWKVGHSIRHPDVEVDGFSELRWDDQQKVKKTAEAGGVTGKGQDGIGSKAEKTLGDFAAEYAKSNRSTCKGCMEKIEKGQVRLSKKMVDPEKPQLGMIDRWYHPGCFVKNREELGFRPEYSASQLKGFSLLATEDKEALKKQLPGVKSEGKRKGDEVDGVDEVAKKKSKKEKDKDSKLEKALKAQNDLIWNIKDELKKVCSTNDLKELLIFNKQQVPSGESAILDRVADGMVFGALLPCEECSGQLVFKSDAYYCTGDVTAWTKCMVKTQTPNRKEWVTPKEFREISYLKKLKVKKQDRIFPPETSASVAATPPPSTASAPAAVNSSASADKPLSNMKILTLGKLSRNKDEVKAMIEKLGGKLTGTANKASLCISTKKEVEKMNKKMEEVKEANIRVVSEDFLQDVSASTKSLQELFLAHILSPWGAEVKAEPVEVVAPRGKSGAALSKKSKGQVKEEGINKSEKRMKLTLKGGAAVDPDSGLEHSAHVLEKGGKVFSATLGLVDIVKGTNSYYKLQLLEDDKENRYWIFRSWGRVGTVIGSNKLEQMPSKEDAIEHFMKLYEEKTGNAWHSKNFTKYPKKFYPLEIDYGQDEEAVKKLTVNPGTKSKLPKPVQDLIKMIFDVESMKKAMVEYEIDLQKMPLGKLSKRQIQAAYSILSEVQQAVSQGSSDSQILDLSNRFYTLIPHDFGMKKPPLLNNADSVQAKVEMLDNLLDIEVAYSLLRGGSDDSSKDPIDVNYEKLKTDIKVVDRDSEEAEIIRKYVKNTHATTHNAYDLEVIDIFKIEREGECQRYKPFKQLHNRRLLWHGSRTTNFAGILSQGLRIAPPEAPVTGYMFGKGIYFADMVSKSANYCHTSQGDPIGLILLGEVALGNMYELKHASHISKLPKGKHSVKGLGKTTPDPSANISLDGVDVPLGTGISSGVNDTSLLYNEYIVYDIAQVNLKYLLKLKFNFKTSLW

`CCc1cc(-c2ccc(S(=O)(=O)NCc3ccc(OC)cc3)s2)c(C)[nH]c1=O` [Example 122B, 5-(5-Ethyl-2-methyl-6-oxo-1,6-dihydro-pyridin-3-yl)-thiophene-2-sulfonic acid 4-methoxy-benzylamide]: the IC50 stood at 0.13 µM.
`CCc1cc(-c2ccc(S(=O)(=O)NCc3ccc(S(C)(=O)=O)cc3)s2)c(C)[nH]c1=O` [Example 122C, 5-(5-Ethyl-2-methyl-6-oxo-1,6-dihydro-pyridin-3-yl)-thiophene-2-sulfonic acid 4-methanesulfonyl-benzylamide]: the IC50 was 0.86 µM.
For `CCc1cc(-c2ccc(S(=O)(=O)NCc3c[nH]c4ccccc34)s2)c(C)[nH]c1=O` [Example 122D, 5-(5-Ethyl-2-methyl-6-oxo-1,6-dihydro-pyridin-3-yl)-thiophene-2-sulfonic acid (1H-indol-3-ylmethyl)-amide] the value was 0.06 µM; for `CCc1cc(-c2ccc(CNCc3ccccc3)o2)c(C)[nH]c1=O` [Example 123, 5-[5-(Benzylamino-methyl)-furan-2-yl]-3-ethyl-6-methyl-1H-pyridin-2-one hydrochloride], 0.58 µM.
As for `CCc1cc(-c2ccc(CN(C)Cc3ccccc3)o2)c(C)[nH]c1=O` [Example 179, 5-{5-[(Benzylmethylamino)methyl]furan-2-yl)-3-ethyl-6-methyl-1H-pyridin-2-one], the IC50 came to 2.11 µM.
For `CCc1cc(-c2coc(CN3CCCC3)c2)c(C)[nH]c1=O` [Example 181A] the value was 2.17 µM; for `CCc1cc(-c2ccc(CN3CCCC3)o2)c(C)[nH]c1=O` [Example 181], 0.49 µM; for `CCc1cc(-c2ccc(CN(Cc3ccccc3)Cc3cccnc3)o2)c(C)[nH]c1=O` [Example 182A, 5-{5-[(Benzyl-pyridin-3-ylmethyl-amino)-methyl]-furan-2-yl}-3-ethyl-6-methyl-1H-pyridin-2-one], 17.4 µM.
`CCc1cc(-c2ccc(CNCc3ccc(NC(C)=O)cc3)o2)c(C)[nH]c1=O` [Example 182B, N-[4-({[5-(5-Ethyl-2-methyl-6-oxo-1,6-dihydro-pyridin-3-yl)-furan-2-ylmethyl]-amino}-methyl)-phenyl]-acetamide]: the IC50 was determined as 0.29 µM.
Consider `CCc1cc(-c2ccc(CNCCc3ccc(Cl)c(S(N)(=O)=O)c3)o2)c(C)[nH]c1=O` [Example 182C, 2-Chloro-5-(2-{[5-(5-ethyl-2-methyl-6-oxo-1,6-dihydro-pyridin-3-yl)-furan-2-ylmethyl]-amino}-ethyl)-benzenesulfonamide], for which the IC50 is 0.28 µM.
Regarding `CCc1cc(-c2ccc(CNCc3cnn(C)c3)o2)c(C)[nH]c1=O` [Example 182D, 3-Ethyl-6-methyl-5-(5-{[(1-methyl-1H-pyrazol-4-ylmethyl)-amino]-methyl}-furan-2-yl)-1H-pyridin-2-one], the IC50 was found to be 0.3 µM.
For `CCc1cc(-c2ccc(CNCc3ccccc3OC(F)(F)F)o2)c(C)[nH]c1=O` [Example 182E, 3-Ethyl-6-methyl-5-{5-[(2-trifluoromethoxy-benzylamino)-methyl]-furan-2-yl}-1H-pyridin-2-one] the value was 1.49 µM.
For `CCc1cc(-c2coc(CNCc3ccccn3)c2)c(C)[nH]c1=O` [Example 182F, 3-Ethyl-6-methyl-5-(5-{[(pyridin-2-ylmethyl)-amino]-methyl}-furan-3-yl)-1H-pyridin-2-one] the value was 1.62 µM; for `CCc1cc(-c2cccc(CN3CCCC3)n2)c(C)[nH]c1=O` [Example 182G, 5′-Ethyl-2′-methyl-6-pyrrolidin-1-ylmethyl-1′H-[2,3′]bipyridinyl-6′-one], 3.33 µM.
`CCc1cc(-c2cccc(CNCc3ccccn3)n2)c(C)[nH]c1=O` [Example 182H, 5′-Ethyl-2′-methyl-6-{[(pyridin-2-ylmethyl)-amino]-methyl}-1′H-[2,3′]bipyridinyl-6′-one]: the IC50 amounted to 1.11 µM.
For `CCc1cc(-c2cccc(CN3CCC(O)CC3)n2)c(C)[nH]c1=O` [Example 182I, 5′-Ethyl-6-(4-hydroxy-piperidin-1-ylmethyl)-2′-methyl-1′H-[2,3′]bipyridinyl-6′-one], the IC50 was determined as 8.61 µM.
As for `CCc1cc(-c2cccc(CN3CCN(C(C)=O)CC3)n2)c(C)[nH]c1=O` [Example 182J, 6-(4-Acetyl-piperazin-1-ylmethyl)-5′-ethyl-2′-methyl-1′H-[2,3′]bipyridinyl-6′-one], the IC50 is 14.6 µM.
For `CCc1cc(-c2cccc(CN3CCC(N4CCCC4)CC3)n2)c(C)[nH]c1=O` [Example 182K, 5′-Ethyl-2′-methyl-6-(4-pyrrolidin-1-yl-piperidin-1-ylmethyl)-1′H-[2,3′]bipyridinyl-6′-one] the value was 4.23 µM; for `CCc1cc(-c2ccc(C=NOCCN3CCCC3)o2)c(C)[nH]c1=O` [Example 199, 3-Ethyl-2-methyl-6-oxo-1,6-dihydropyridin-3-yl)furan-2-carbaldehyde O-(2-pyrrolidin-1-ylethyl)oxime hydrochloride], 0.18 µM; for `CCc1cc(-c2ccc(C=NO)o2)c(C)[nH]c1=O` [Example 199A, 5-(5-Ethyl-2-methyl-6-oxo-1,6-dihydro-pyridin-3-yl)-furan-2-carbaldehyde oxime], 0.51 µM.
As to `CCc1cc(-c2ccc(CO)o2)c(C)[nH]c1=O` [Example 200A, 3-Ethyl-5-(5-hydroxymethyl-furan-2-yl)-6-methyl-1H-pyridin-2-one], the IC50 worked out at 1.03 µM.
Consider `CCc1cc(-c2ccc(C(=O)N3CCN(c4ccccc4)CC3)o2)c(C)[nH]c1=O` [Example 201, 3-Ethyl-6-methyl-5-[5-(4-phenyl-piperazine-1-carbonyl)-furan-2-yl]-1H-pyridin-2-one], for which the IC50 came to 1.35 µM.
On to `CCc1cc(-c2cccc(C(=O)NCCc3ccc([N+](=O)[O-])cc3)n2)c(C)[nH]c1=O` [Example 205, 5′-Ethyl-2′-methyl-6′-oxo-1′,6′-dihydro-[2,3′]bipyridinyl-6-carboxylic acid [2-(4-nitro-phenyl)-ethyl]-amide], for which the IC50 amounted to 0.57 µM.
In the case of `CCCCNC(=O)c1cccc(-c2cc(CC)c(=O)[nH]c2C)n1` [Example 206, 5′-Ethyl-2′-methyl-6′-oxo-1′,6′-dihydro-[2,3′]bipyridinyl-6-carboxylic acid butylamide], the IC50 turned out to be 1.14 µM.
For `CCc1cc(-c2cccc(C(=O)N3CCCC3)n2)c(C)[nH]c1=O` [Example 207, 5′-Ethyl-2′-methyl-6-(pyrrolidine-1-carbonyl)-1′H-[2,3′]bipyridinyl-6′-one], the IC50 amounted to 4.72 µM.
Consider `CCc1cc(-c2ccc(C(=O)NCc3ccccn3)cn2)c(C)[nH]c1=O` [Example 208, 5′-Ethyl-2′-methyl-6′-oxo-1′,6′-dihydro-[2,3′]bipyridinyl-5-carboxylic acid (pyridin-2-ylmethyl)-amide], for which the IC50 turned out to be 14.8 µM.
On to `CCCCNC(=O)c1ccc(-c2cc(CC)c(=O)[nH]c2C)nc1` [Example 209, 5′-Ethyl-2′-methyl-6′-oxo-1′,6′-dihydro-[2,3′]bipyridinyl-5-carboxylic acid butylamide], for which the IC50 is 13 µM.
Turning to `CCc1cc(-c2ccc(C(=O)N3CCC(O)C3)cn2)c(C)[nH]c1=O` (stereo not shown) [Example 210, 5′-Ethyl-5-(3-hydroxy-pyrrolidine-1-carbonyl)-2′-methyl-1′H-[2,3′]bipyridinyl-6′-one], the IC50 is 12.1 µM.

For the origin of these results see US8173682B2, “Substituted pyridones as inhibitors of poly(ADP-ribose) polymerase (PARP)” (Aventis Pharmaceuticals Inc., priority 2004, dated 2012).
